US4868321A, “Isothiocyanate intermediates” (FMC Corporation, priority 1988, dated 1989)

Tests used:
Format in all cases: in vivo
[1] = system: Cotton; assay: Preemergence Herbicidal Activity, Cotton; settings: Gossypium hirsutum, pre-emergence; for plant injury at 1000 g/ha: 1.0 kg/ha; for plant injury at 500 g/ha: 0.5 kg/ha
Description: (§1) The herbicidal data in the following Tables 3 and 4 was obtained in the manner described in PCT published application no. WO 85/01939, previously mentioned, usually employing solutions of the herbicidal compound in 50/50 acetone/water mixtures. In those tables, the test compounds are identified by numbers which correspond to those in Table 1, "kg/ha" is kilograms per hectare, and "% C" is percent control.

[2] = system: Soybean; assay: Preemergence Herbicidal Activity, Soybean; settings: Glycine max, pre-emergence; for plant injury at 1000 g/ha: 1.0 kg/ha; for plant injury at 500 g/ha: 0.5 kg/ha
Description: (§2) The herbicidal data in the following Tables 3 and 4 was obtained in the manner described in PCT published application no. […] In those tables, the test compounds are identified by numbers which correspond to those in Table 1, "kg/ha" is kilograms per hectare, and "% C" is percent control.

[3] = system: Field Corn; assay: Preemergence Herbicidal Activity, Field Corn; settings: Zea mays, pre-emergence; for plant injury at 1000 g/ha: 1.0 kg/ha; for plant injury at 500 g/ha: 0.5 kg/ha
Description: as §2

[4] = system: Rice; assay: Preemergence Herbicidal Activity, Rice; settings: Oryza sativa, pre-emergence; for plant injury at 1000 g/ha: 1.0 kg/ha; for plant injury at 500 g/ha: 0.5 kg/ha
Description: as §2

[5] = system: Wheat; assay: Preemergence Herbicidal Activity, Wheat; settings: Triticum aestivum, pre-emergence; for plant injury at 1000 g/ha: 1.0 kg/ha; for plant injury at 500 g/ha: 0.5 kg/ha
Description: as §2

[6] = system: Field Bindweed; assay: Preemergence Herbicidal Activity, Field Bindweed; settings: pre-emergence; for pest or weed control at 1000 g/ha: 1.0 kg/ha; for pest or weed control at 500 g/ha: 0.5 kg/ha
Description: as §1

[7] = system: Morningglory; assay: Preemergence Herbicidal Activity, Morningglory; settings: Ipomoea, pre-emergence; for pest or weed control at 1000 g/ha: 1.0 kg/ha; for pest or weed control at 500 g/ha: 0.5 kg/ha
Description: as §1

[8] = system: Velvetleaf; assay: Preemergence Herbicidal Activity, Velvetleaf; settings: Abutilon theophrasti, pre-emergence; for pest or weed control at 1000 g/ha: 1.0 kg/ha; for pest or weed control at 500 g/ha: 0.5 kg/ha
Description: as §1

[9] = system: Barnyardgrass; assay: Preemergence Herbicidal Activity, Barnyardgrass; settings: Echinochloa crus-galli, pre-emergence; for pest or weed control at 1000 g/ha: 1.0 kg/ha; for pest or weed control at 500 g/ha: 0.5 kg/ha
Description: as §2

[10] = system: Green Foxtail; assay: Preemergence Herbicidal Activity, Green Foxtail; settings: Setaria viridis, pre-emergence; for pest or weed control at 1000 g/ha: 1.0 kg/ha; for pest or weed control at 500 g/ha: 0.5 kg/ha
Description: as §2

[11] = system: Johnsongrass; assay: Preemergence Herbicidal Activity, Johnsongrass; settings: Sorghum halepense, pre-emergence; for pest or weed control at 1000 g/ha: 1.0 kg/ha; for pest or weed control at 500 g/ha: 0.5 kg/ha
Description: as §2

[12] = system: Cotton; assay: Postemergence Herbicidal Activity, Cotton; settings: Gossypium hirsutum, post-emergence; for plant injury at 1000 g/ha: 1.0 kg/ha; for plant injury at 500 g/ha: 0.5 kg/ha
Description: as §1

[13] = system: Soybean; assay: Postemergence Herbicidal Activity, Soybean; settings: Glycine max, post-emergence; for plant injury at 1000 g/ha: 1.0 kg/ha; for plant injury at 500 g/ha: 0.5 kg/ha
Description: as §2

[14] = system: Field Corn; assay: Postemergence Herbicidal Activity, Field Corn; settings: Zea mays, post-emergence; for plant injury at 1000 g/ha: 1.0 kg/ha; for plant injury at 500 g/ha: 0.5 kg/ha
Description: as §2

[15] = system: Rice; assay: Postemergence Herbicidal Activity, Rice; settings: Oryza sativa, post-emergence; for plant injury at 1000 g/ha: 1.0 kg/ha; for plant injury at 500 g/ha: 0.5 kg/ha
Description: as §2

[16] = system: Wheat; assay: Postemergence Herbicidal Activity, Wheat; settings: Triticum aestivum, post-emergence; for plant injury at 1000 g/ha: 1.0 kg/ha; for plant injury at 500 g/ha: 0.5 kg/ha
Description: as §2

[17] = system: Field Bindweed; assay: Postemergence Herbicidal Activity, Field Bindweed; settings: post-emergence; for pest or weed control at 1000 g/ha: 1.0 kg/ha; for pest or weed control at 500 g/ha: 0.5 kg/ha
Description: as §1

[18] = system: Morningglory; assay: Postemergence Herbicidal Activity, Morningglory; settings: Ipomoea, post-emergence; for pest or weed control at 1000 g/ha: 1.0 kg/ha; for pest or weed control at 500 g/ha: 0.5 kg/ha
Description: as §1

[19] = system: Velvetleaf; assay: Postemergence Herbicidal Activity, Velvetleaf; settings: Abutilon theophrasti, post-emergence; for pest or weed control at 1000 g/ha: 1.0 kg/ha; for pest or weed control at 500 g/ha: 0.5 kg/ha
Description: as §1

[20] = system: Barnyardgrass; assay: Postemergence Herbicidal Activity, Barnyardgrass; settings: Echinochloa crus-galli, post-emergence; for pest or weed control at 1000 g/ha: 1.0 kg/ha; for pest or weed control at 500 g/ha: 0.5 kg/ha
Description: as §2

[21] = system: Green Foxtail; assay: Postemergence Herbicidal Activity, Green Foxtail; settings: Setaria viridis, post-emergence; for pest or weed control at 1000 g/ha: 1.0 kg/ha; for pest or weed control at 500 g/ha: 0.5 kg/ha
Description: as §2

[22] = system: Johnsongrass; assay: Postemergence Herbicidal Activity, Johnsongrass; settings: Sorghum halepense, post-emergence; for pest or weed control at 1000 g/ha: 1.0 kg/ha; for pest or weed control at 500 g/ha: 0.5 kg/ha
Description: as §2

Work on `CCN(c1cc(-n2nnn(CCCF)c2=O)c(F)cc1Cl)S(=O)(=O)CC` [Compound 13, 1-[4-chloro-2-fluoro-5-[(N--ethyl-N--ehtylsulfonyl)amino]phenyl]-1,4-dihydro-4-(3-fluoropropyl)-5H--tetrazol-5-one] yielded a plant injury at 1000 g/ha [1] of 95%, a plant injury at 1000 g/ha [2] of 95% and a plant injury at 1000 g/ha [3] of 100%. It also gave a plant injury at 1000 g/ha [4] of 100%, a plant injury at 1000 g/ha [5] of 100% and a pest or weed control at 1000 g/ha [6] of 100%. For the same molecule, the pest or weed control at 1000 g/ha [7] was 95%, the pest or weed control at 1000 g/ha [8] was 100% and the pest or weed control at 1000 g/ha [9] was 100%. For the same molecule, the pest or weed control at 1000 g/ha [10] was 100%, the pest or weed control at 1000 g/ha [11] was 100% and the plant injury at 1000 g/ha [12] was 100%. For the same molecule, the plant injury at 1000 g/ha [13] was 95%, the plant injury at 1000 g/ha [14] was 100% and the plant injury at 1000 g/ha [15] was 100%. The plant injury at 1000 g/ha [16] was 100%, the pest or weed control at 1000 g/ha [17] was 100% and the pest or weed control at 1000 g/ha [18] was 100%. For the same molecule, the pest or weed control at 1000 g/ha [19] was 100%, the pest or weed control at 1000 g/ha [20] was 100% and the pest or weed control at 1000 g/ha [21] was 100%. The pest or weed control at 1000 g/ha [22] was 100%.
Work on `CCS(=O)(=O)N(COC)c1cc(-n2nnn(CCCF)c2=O)c(F)cc1Cl` [Compound 15, 1-[4-chloro-2-fluoro-5-[(N---ethylsulfonyl-N--methoxymethyl)amino]-phenyl]-1,4-dihydro-4-(3-fluoropropyl)-5H--tetrazol-5-one] yielded a plant injury at 500 g/ha [1] of 100%, a plant injury at 500 g/ha [2] of 95% and a plant injury at 500 g/ha [3] of 100%. The plant injury at 500 g/ha [4] was 100%, the plant injury at 500 g/ha [5] was 100% and the pest or weed control at 500 g/ha [6] was 100%. It also gave a pest or weed control at 500 g/ha [7] of 100%, a pest or weed control at 500 g/ha [8] of 100% and a pest or weed control at 500 g/ha [9] of 100%. It also gave a pest or weed control at 500 g/ha [10] of 100%, a pest or weed control at 500 g/ha [11] of 100% and a plant injury at 500 g/ha [12] of 100%. It also gave a plant injury at 500 g/ha [13] of 95%, a plant injury at 500 g/ha [14] of 95% and a plant injury at 500 g/ha [15] of 60%. For the same molecule, the plant injury at 500 g/ha [16] was 100%, the pest or weed control at 500 g/ha [17] was 80% and the pest or weed control at 500 g/ha [18] was 100%. For the same molecule, the pest or weed control at 500 g/ha [19] was 100%, the pest or weed control at 500 g/ha [20] was 80% and the pest or weed control at 500 g/ha [21] was 90%. For the same molecule, the pest or weed control at 500 g/ha [22] was 80%.
Work on `CCS(=O)(=O)N(CC#N)c1cc(-n2nnn(CCCF)c2=O)c(F)cc1Cl` [Compound 16] yielded a plant injury at 500 g/ha [1] of 100%, a plant injury at 500 g/ha [2] of 80% and a plant injury at 500 g/ha [3] of 95%. The plant injury at 500 g/ha [4] was 70%, the plant injury at 500 g/ha [5] was 60% and the pest or weed control at 500 g/ha [6] was 100%. It also gave a pest or weed control at 500 g/ha [7] of 100%, a pest or weed control at 500 g/ha [8] of 100% and a pest or weed control at 500 g/ha [9] of 90%. The pest or weed control at 500 g/ha [10] was 100%, the pest or weed control at 500 g/ha [11] was 90% and the plant injury at 500 g/ha [12] was 100%. For the same molecule, the plant injury at 500 g/ha [13] was 70%, the plant injury at 500 g/ha [14] was 50% and the plant injury at 500 g/ha [15] was 50%. The plant injury at 500 g/ha [16] was 60%, the pest or weed control at 500 g/ha [17] was 100% and the pest or weed control at 500 g/ha [18] was 100%. For the same molecule, the pest or weed control at 500 g/ha [19] was 100%, the pest or weed control at 500 g/ha [20] was 50% and the pest or weed control at 500 g/ha [21] was 70%. For the same molecule, the pest or weed control at 500 g/ha [22] was 60%.
In the case of `CCOC(=O)CN(c1cc(-n2nnn(CCCF)c2=O)c(F)cc1Cl)S(=O)(=O)CC` [Compound 17, ethyl [2-chloro-4-fluoro-5-[1,4-dihydro-5-oxo-4-(3-fluoropropyl)tetrazol-1-yl]-phenyl(N--ethylsulfonyl)amino]-acetate], the plant injury at 1000 g/ha [1] is reported as 10%, the plant injury at 1000 g/ha [2] is reported as 10% and the plant injury at 1000 g/ha [3] is reported as 10%. The plant injury at 1000 g/ha [4] was 10%, the plant injury at 1000 g/ha [5] was 20% and the pest or weed control at 1000 g/ha [6] was 10%. For the same molecule, the pest or weed control at 1000 g/ha [7] was 30%, the pest or weed control at 1000 g/ha [8] was 90% and the pest or weed control at 1000 g/ha [9] was 20%. The pest or weed control at 1000 g/ha [10] was 30%, the pest or weed control at 1000 g/ha [11] was 60% and the plant injury at 1000 g/ha [12] was 90%. It also gave a plant injury at 1000 g/ha [13] of 50%, a plant injury at 1000 g/ha [14] of 60% and a plant injury at 1000 g/ha [15] of 20%. It also gave a plant injury at 1000 g/ha [16] of 40%, a pest or weed control at 1000 g/ha [17] of 80% and a pest or weed control at 1000 g/ha [18] of 60%. For the same molecule, the pest or weed control at 1000 g/ha [19] was 95%, the pest or weed control at 1000 g/ha [20] was 40% and the pest or weed control at 1000 g/ha [21] was 40%. It also gave a pest or weed control at 1000 g/ha [22] of 40%.
